A short description of series [1]: Solubility in Japanese pharmacopoeia test liquids. It counts as physicochemical. From the text: For example, the above pyrimidinedione derivative is a basic drug, and has general characteristics that it is easily soluble on an acid side of a pH but very little soluble on a neutral side or an alkaline side. That is to say, in the digestive organs, the pyrimidinedione derivative is easily dissolved and released in the stomach owing to an acid therein, but the dissolution and the release of the pyrimidinedione derivative deteriorate in the intestines because the intestines are a neutral or an alkaline state. Furthermore, the deterioration of the solubility of the pyrimidinedione derivative with the increase of the pH is remarkable.

Series [2] can be described thus: Oral administration test of the drug, concentration in blood. From the text:
For example, in Example 18 of Japanese Patent Application Laid-open No. 173873/1991, the pyrimidinedione derivative is sufficiently mixed with lactose and starch, and the resultant mixture is then filled into capsules to manufacture the desired drug. The present inventors actually carried out an oral administration test for the drug.

A word on the solubility: it is the concentration that dissolves in the medium under given conditions. What is called Tmax is the time from dosing to the highest level. Turning to `Cn1c(NCCN(CCO)CCCc2ccc([N+](=O)[O-])cc2)cc(=O)n(C)c1=O` [the pyrimidinedione derivative, 1,3-dimethyl-6-{2-{N-(2-hydroxyethyl)-N-[3-(4-nitrophenyl)propyl]amino}ethylamino}-2,4-(1H,3H)-pyrimidinedione], the solubility is at least 1000 mg/mL in series [1] (jp test liquid no. 1, Japanese pharmacopoeia test liquid No. 1 (pH = 1.2)) and at most 0.1 mg/mL in series [1] (jp test liquid no. 2, Japanese pharmacopoeia test liquid No. 2 (pH = 6.8)). Besides, in series [2], the Tmax was at most 30 min.

Source of the values: patent EP0640341A1, “Sustained release pharmaceutical composition and process for producing same” (priority 1993, dated 1995).
